In patent US20210238139A1, “MODULATORS OF TRYPTOPHAN CATABOLISM” (E-Therapeutics PLC, priority 2018, published 2021) one finds IC50 data, which are given here for 40 compounds.

pIC50: −log10 of the molar value.

The test deals with SK-OV-3 cells. The test can be described thus: Effect of compounds on tryptophan catabolism in SK-OV-3 cell line (inhibition of kynurenine production, LC-MS/MS). It is filed as cell-based. Conditions: Homo sapiens, SK-OV-3, 24 h, SK-OV-3 cell line, 24 h incubation, kynurenine in supernatant by LC-MS/MS; read-out: IC50 Ranges (ic50 values for inhibition of Kynurenine production). The protocol: SK-OV-3 cells are seeded in 96-well plates in McCoy's 5A medium supplemented with 10% FBS and incubated overnight at 37° C., 5% CO2, 95% humidity. The […] growth medium is replaced with DMEM F-12 medium supplemented with 6 mg/mL L-tryptophan. Compounds are added to the wells and incubated for 24 h at 37° C., 5% CO2, 95% humidity. Compounds are tested at 8 consecutive 3-fold dilutions starting from 30 μM in duplicate. At the end of incubation, concentration of kynurenine in cell supernatants is […] determined by LC-MS/MS. In parallel, cell viability is assessed by measurement of ATP using CellTiter Glo assay (Promega), according to manufacturer's protocol. Inhibition of Kyn production is calculated using the following formula: […] IC50 ranges for compounds of the invention are presented in Table 2, whereby the IC50 ranges are as follows: • A: […]
In the case of `Cc1ccc(CN(C(=O)Nc2ccc(OC(F)F)cc2)c2cnoc2C)o1` [Compound 301, 3-[4-(difluoromethoxy)phenyl]-1-[(5-methyl-2-furyl)methyl]-1-(5-methylisoxazol-4-yl)urea], the pIC50 is more than 7.00.
The same measure for `CC1(CN(C(=O)Nc2ccc(F)cc2)C2CCCC2)CCN(S(C)(=O)=O)CC1` [Compound 113, 1-cyclopentyl-3-(4-fluorophenyl)-1-[(4-methyl-1-methylsulfonyl-4-piperidyl)methyl]urea]: 5.30 to 6.00; for `Cc1ccc(CN(C(=O)Nc2ccccc2C#N)C2CCCC2)o1` [Compound 95, 3-(2-cyanophenyl)-1-cyclopentyl-1-[(5-methyl-2-furyl)methyl]urea]: 5.30 to 6.00; for `Cc1ccc(CN(C(=O)Nc2nc(C#N)cs2)C2CCCC2)o1` [Compound 135, 3-(4-cyanothiazol-2-yl)-1-cyclopentyl-1-[(5-methyl-2-furyl)methyl]urea]: 5.30 to 6.00.
Consider `Cc1ccc(CN(C(=O)Nc2nnc(C3CCCCC3)o2)C2CCCC2)o1` [Compound 169, 3-(5-cyclohexyl-1,3,4-oxadiazol-2-yl)-1-cyclopentyl-1-[(5-methyl-2-furyl)methyl]urea], for which the pIC50 was 5.30 to 6.00.
For the compound `Cc1ccc(CN(C(=O)Nc2ccc(Cl)cc2)c2cnc[nH]2)o1` [Compound 183, 3-(4-chlorophenyl)-1-(1H-imidazol-5-yl)-1-[(5-methyl-2-furyl)methyl]urea], the negative-log IC50 (pIC50) is 5.30 to 6.00.
As for `Cc1ccc(CN(C(=O)Nc2nnc(-c3ccccc3)o2)C2CCCC2)o1` [Compound 175, 1-cyclopentyl-1-[(5-methyl-2-furyl)methyl]-3-(5-phenyl-1,3,4-oxadiazol-2-yl) urea], the figure is 6.00 to 6.30; as for `C#Cc1cnc(NC(=O)N(Cc2ccc(C)o2)C2CCCC2)nc1` [Compound 17, 1-cyclopentyl-3-(5-ethynylpyrimidin-2-yl)-1-[(5-methyl-2-furyl)methyl]urea], 6.30 to 7.00.
The same measure for `Cc1oncc1N(Cc1cccc(C(F)(F)F)c1)C(=O)Nc1ccc(C#N)cc1` [Compound 293, 3-(4-cyanophenyl)-1-(5-methylisoxazol-4-yl)-1-[[3-(trifluoromethyl)phenyl]methyl]urea]: 6.30 to 7.00; for `N#Cc1ccc(NC(=O)N(Cc2cc3ncccc3o2)C2CCC2)cc1` [Compound 249, 3-(4-cyanophenyl)-1-cyclobutyl-1-(furo[3,2-b]pyridin-2-ylmethyl)urea]: less than 5.30.
Take `O=C(Nc1ccc2c(c1)OCO2)N(Cc1cccs1)C1CCCC1` [Compound 7, 3-(1,3-benzodioxol-5-yl)-1-cyclopentyl-1-(2-thienylmethyl)urea]: the pIC50 was 5.30 to 6.00.
As for `CCc1ccc(CN(C(=O)Nc2ccc(C#N)cc2)C2CCCC2)o1` [Compound 295, 3-(4-cyanophenyl)-1-cyclopentyl-1-[(5-ethyl-2-furyl)methyl]urea], the figure is more than 7.00; as for `Cc1ccc(CN(C(=O)Nc2ccc(C#CCO)cc2)c2nccn2C)o1` [Compound 309, 3-[4-(3-hydroxyprop-ynyl)phenyl]-1-[(5-methyl-2-furyl)methyl]-1-(1-methylimidazol-2-yl)urea], 6.30 to 7.00; as for `Cn1nccc1N(Cc1ccc2ncsc2c1)C(=O)Nc1ccc(C#CCO)cc1` [Compound 280, 1-(1,3-benzothiazol-6-ylmethyl)-3-[4-(3-hydroxyprop-1-ynyl)phenyl]-1-(2-methylpyrazol-3-yl)urea], 5.30 to 6.00.
The same measure for `Cc1nc(C)c(CN(C(=O)Nc2ccc(F)c(F)c2)C2CCCC2)s1` [Compound 171, 1-cyclopentyl-1-[(2,4-dimethylthiazol-5-yl)methyl]-3-(3,4-difluorophenyl)-urea]: 5.30 to 6.00; for `N#Cc1cc(CN(C(=O)Nc2ccccc2)C2CCCC2)ccc1F` [Compound 50, 1-[(3-cyano-4-fluoro-phenyl)methyl]-1-cyclopentyl-3-phenyl-urea]: 6.30 to 7.00.
In the case of `O=C(Nc1ccc(Cl)cc1)N(Cc1ccncc1)C1CCCC1` [Compound 76, 3-(4-chlorophenyl)-1-cyclopentyl-1-(4-pyridylmethyl)urea], the pIC50 was 6.00 to 6.30.
As for `Cc1ccc(C(C)N(C(=O)Nc2ccc(C#N)cc2)C2CCCC2)o1` (racemic) [Compound 190, 3-(4-cyanophenyl)-1-cyclopentyl-1-[1-(5-methyl-2-furyl)ethyl]urea], the figure is 6.30 to 7.00.
Consider `Cc1ccc(CN(C(=O)Nc2ccc(Cl)cc2)c2cnn(C)c2)o1` [Compound 225, 3-(4-chlorophenyl)-1-[(5-methyl-2-furyl)methyl]-1-(1-methylpyrazol-4-yl)urea], for which the pIC50 is 6.30 to 7.00.
As to `O=C(Nc1ccc(F)cc1)N(Cc1ccncc1)C1CCCC1` [Compound 75, 1-cyclopentyl-3-(4-fluorophenyl)-1-(4-pyridylmethyl)urea], the pIC50 is less than 5.30.
The same measure for `Cc1ccc(CN(C(=O)Nc2ccc(C#N)cc2)c2conc2C)o1` [Compound 278, 3-(4-cyanophenyl)-1-[(5-methyl-2-furyl)methyl]-1-(3-methylisoxazol-4-yl)urea]: more than 7.00; for `Cc1ccc(CN(C(=O)Nc2ccc(C(F)(F)F)nc2)C2CCCC2)o1` [Compound 228, 1-cyclopentyl-1-[(5-methyl-2-furyl)methyl]-3-[6-(trifluoromethyl)-3-pyridyl]urea]: 6.30 to 7.00.
As for `Cc1nocc1N(Cc1cccc(C(F)(F)F)c1)C(=O)Nc1ccc(C#CCO)cc1` [Compound 315, 3-[4-(3-hydroxyprop-1-ynyl)phenyl]-1-(3-methylisoxazol-4-yl)-1-[[3-(trifluoromethyl)phenyl]methyl]urea], the figure is more than 7.00.
The same measure for `CC(=O)c1ccc(NC(=O)N(Cc2cccs2)C2CCCC2)cc1` [Compound 22, 3-(4-acetylphenyl)-1-cyclopentyl-1-(2-thienylmethyl)urea]: less than 5.30.
Consider `O=C(NCCc1ccccc1)N(Cc1ccccn1)C1CCCCC1` [Compound 20, 1-cyclohexyl-3-(2-phenylethyl)-1-(2-pyridylmethyl)urea], for which the pIC50 was less than 5.30.
The same measure for `O=C(Nc1ccc(Cl)cc1)N(Cc1ccc2scnc2c1)C1CCC1` [Compound 260, 1-(1,3-benzothiazol-5-ylmethyl)-3-(4-chlorophenyl)-1-cyclobutyl-urea]: more than 7.00.
The same measure for `Cc1ccc(CN(C(=O)Nc2ccc(C#N)cc2)c2ncccc2C)o1` [Compound 314, 3-(4-cyanophenyl) [(5-methyl-2-furyl)methyl]-1-(3-methyl-2-pyridyl)urea]: 6.30 to 7.00; for `Cc1ccc(CN(C(=O)Nc2ccc(C#N)cc2)C2CC(F)(F)C2)o1` [Compound 241, 3-(4-cyanophenyl)-1-(3,3-difluorocyclobutyl)-1-[(5-methyl-2-furyl)methyl]urea]: 6.00 to 6.30.
The same measure for `O=C(Nc1ccc(Cl)cc1)N(Cc1ccno1)C1CCCC1` [Compound 128, 3-(4-chlorophenyl)-1-cyclopentyl-1-(isoxazol-5-ylmethyl)urea]: 6.00 to 6.30; for `N#Cc1ccc(NC(=O)N(Cc2cc3ccccc3o2)C2CCCC2)cc1` [Compound 132, 1-(benzofuran-2-ylmethyl)-3-(4-cyanophenyl)-1-cyclopentyl-urea]: 6.30 to 7.00; for `NC(=O)c1cc(CN(C(=O)Nc2ccc(F)cc2)C2CCCC2)ccc1F` [Compound 122, 5-[[cyclopentyl-[(4-fluorophenyl)carbamoyl]amino]methyl]-2-fluoro-benzamide]: 5.30 to 6.00.
As for `C#Cc1ccc(NC(=O)N(Cc2ccc(C)o2)C2CCN(C)CC2)cc1` [Compound 258, 3-(4-ethynylphenyl)-1-[(5-methyl-2-furyl)methyl]-1-(1-methyl-4-piperidyl)urea], the pIC50 is less than 5.30.
The same measure for `O=C(Nc1ccccc1)N(Cc1ccccc1Cl)C1CCCC1` [Compound 38, 1-[(2-chlorophenyl)methyl]-1-cyclopentyl-3-phenyl-urea]: 6.00 to 6.30; for `Cc1ccc(CN(C(=O)Nc2ccc(Cl)cc2)C2CCC(C#N)C2)o1` (stereo not shown) [Compound 254, 3-(4-chlorophenyl)-1-(3-cyanocyclopentyl)-1-[(5-methyl-2-furyl)methyl]urea]: 6.00 to 6.30; for `CC(c1cccc(C#N)c1)N(C(=O)Nc1ccc(Cl)cc1)C1CCC1` (racemic) [Compound 192, 3-(4-chlorophenyl)-1-[1-(3-cyanophenyl)ethyl]-1-cyclobutyl-urea]: more than 7.00.
`Cc1ccc(CN(C(=O)Nc2ccc(-c3cscn3)cc2)C2CCCC2)o1` [Compound 106, 1-cyclopentyl-1-[(5-methyl-2-furyl)methyl]-3-(4-thiazol-4-ylphenyl)urea]: the pIC50 was 6.00 to 6.30.
As for `O=C(Nc1ccc(Cl)cc1)N(Cc1ccccn1)C1CCCC1` [Compound 69, 3-(4-chlorophenyl)-1-cyclopentyl-1-(2-pyridylmethyl)urea], the figure is 6.30 to 7.00.
The same measure for `Cc1ccc(CN(C(=O)N(C)c2ccc(C#CCO)cc2)C2CCC2)o1` [Compound 306, 1-cyclobutyl-3-[4-(3-hydroxyprop-1-ynyl)phenyl]-3-methyl-1-[(5-methyl-2-furyl)methyl]urea]: 5.30 to 6.00; for `O=C(Nc1ccc(Cl)cc1)N(Cc1ccc2nsnc2c1)C1CCC1` [Compound 240, 1-(2,1,3-benzothiadiazol-5-ylmethyl)-3-(4-chlorophenyl)-1-cyclobutyl-urea]: more than 7.00; for `Cc1nocc1N(CC1CCC2(CC1)COC2)C(=O)Nc1ccc(Cl)cc1` [Compound 326, 3-(4-chlorophenyl)-1-(3-methylisoxazol-4-yl)-1-(2-oxaspiro[3.5]nonan-7-ylmethyl)urea]: less than 5.30.

One may read the pIC50 as the negative decadic logarithm of the IC50, by convention in mol/L.
